In patent publication US10160771B2, “Hepatitis C virus inhibitors and uses thereof in preparation of drugs” (priority 2014, dated 2018) one finds EC50 data, which are given here for 30 molecules.

Each structure is given as a SMILES string.

Assay [1] concerns HCV genotype 1b (HCV-1b) replicon cells. The assay is described as follows: HCV genotype 1b replicon luciferase assay (EC50). It counts as cell-based, hepatitis C virus genotype 1b (Con1 clone). The conditions noted are these: Hepatitis C virus, 72 h, 3 days, luciferase (Bright-Glo). The protocol: (§1) The EC50 and CC50 values of anti-HCV compounds were determined by HCV genotype 1a (HCV-1a) and 1B (HCV-1b) stable transfer replication (replicon) cells. The source of genotype 1a replicon is H77 clones containing K1691R, K2040R and S2204I adaptive mutations. The source of genotype 1b replicon is Con1 clones containing E1202G, T1280I and K1846T adaptive mutations.
(§2) HCV 1a (HCV-1a) and 1b (HCV-1b) gene subtype replicon system contains the related HCV gene subtype non structural protein gene, G418 resistance gene NEO and luciferase gene, which results in that HCV related protein and luciferase can be stably expressed in cells. By detecting the level of expression of luciferase gene, the level of HCV replication can be determined. Therefore, the system is used as a model for screening the activity of anti-HCV compound in vitro.
(§3) HCV Replicon Cell Lines: HCV-1a and HCV-1b Cells
(§4) The compound powder was dissolved in 100% DMSO. Then the compound was diluted 5 times with 6 points, and added into the cell plate with Echo liquid handler. Ensure the final concentration of DMSO was 0.5%. Each compound was tested in double holes. Maximum initial concentration was 100, 10 or 1 nM, 5 times dilution, 6 points.
(§5) b) Cell Culture (HCV-1a or HCV-1b Replicon Cell):
(§6) 1) absorbing the culture supernatant of the cell culture and washing the cells with 10 mL PBS.
(§7) 2) adding preheated pancreatin to the washed cell culture flasks, rotating culture bottle to make the bottom of the culture bottle uniformly covered by pancreatin, then placed into 37° C., 5% CO2 incubator to digest.
(§8) 3) suspending cells in each T150 culture flask with 10-15 mL culture medium, absorbing 0.1 mL liquid and diluting 2 times by trypan blue solution as counted.
(§9) 4) diluting cells to 8×10^4/mL with the culture medium, adding the diluted cells into the compound-containing 96-well plate (Greiner, Cat.#655090) (100 μL/well, 8000 cells/well) with automatic liquid separator (Thermo Scientific). Then place into a 37° C., 5% CO2 incubator for 3 days. Cell control well: no compound, only containing 0.5% DMSO.
(§10) 6) then adding luciferase luminescence substrate Bright-Glo, after incubation for 5 minutes, detecting the luciferase activity by chemical luminescence detection system Envison (wavelength>700 nm); analyzing the anti-HCV inhibitory activity of the compounds according to luciferase data, which was used to calculate EC50 values.
(§11) The EC50 or CC50 values were obtained by nonlinear fitting analysis on inhibition percentage (inh %) data with GraphPad Prism software.
In general terms: Replicon systems follow genome replication, usually without infectious particles.

The test system of assay [2] is HCV genotype 1a (HCV-1a) replicon cells. The assay is described as follows: HCV genotype 1a replicon luciferase assay (EC50). The format is cell-based, hepatitis C virus genotype 1a (H77 clone). The conditions noted are these: Hepatitis C virus, 72 h, 3 days, luciferase (Bright-Glo). The protocol:
as §1, §2, §3, §4, §5, §6, §7, §8, §9, §10, §11

As usually defined, the EC50 is the concentration at which the effect is half-maximal. For the molecule `COC(=O)NN(C(=O)C1=C(c2ncc(-c3ccc(-c4ccc(-c5cnc(C6=C(C(=O)N(NC(=O)OC)C(C)C)CCC6)[nH]5)cc4)cc3)[nH]2)CCC1)C(C)C` [AA_033], the EC50 in assay [1] and in assay [2] was 10 to 100 nM throughout.

For `COC(=O)NN(C(=O)[C@@H]1C2C=CC(C2)C1c1ncc(-c2ccc(-c3ccc(-c4cnc(C5C6C=CC(C6)[C@@H]5C(=O)N(NC(=O)OC)C(C)C)[nH]4)cc3)cc2)[nH]1)C(C)C` (stereo partly shown) [AA_034], the half-maximal effective concentration (EC50) in assay [1] and in assay [2] was 10 to 100 nM throughout. As to `COC(=O)N[C@H](C(=O)N1CCC[C@H]1c1ncc(-c2ccc(-c3ccc(-c4cnc(C5C6CCC(O6)[C@H]5C(=O)N(NC(=O)OC)C(C)C)[nH]4)cc3)cc2)[nH]1)C(C)C` (stereo partly shown) [AA_095], the 50% effective concentration (EC50) in assay [1] lay in the range of 1 to 10 nM. The same measure, in the same setting: for `COC(=O)N[C@H](C(=O)N1CCC[C@H]1c1ncc(-c2ccc(-c3ccc([C@@H](C)NC(=O)[C@H]4CCCC[C@H]4C(=O)N(NC(=O)OC)C(C)C)cc3)cc2)[nH]1)C(C)C` [AA_096] the value was 10 to 100 nM; for `COC(=O)N[C@H](C(=O)N1CCC[C@H]1c1ncc(-c2ccc(-c3ccc([C@H](C)NC(=O)[C@H]4CCCC[C@H]4C(=O)N(NC(=O)OC)C(C)C)cc3)cc2)[nH]1)C(C)C` [AA_097], 10 to 100 nM; for `COC(=O)N[C@H](C(=O)N1CCC[C@H]1c1ncc(-c2ccc3cc(-c4ccc(-c5cnc([C@H]6C7CCC(O7)[C@H]6C(=O)N(NC(=O)OC)C(C)C)[nH]5)cc4)ccc3c2)[nH]1)C(C)C` (stereo partly shown) [AA_106], 10 to 100 nM. The same measure, in the same setting: for `COC(=O)N[C@H](C(=O)N1CCC[C@H]1c1ncc(-c2ccc3cc(-c4ccc(-c5cnc([C@@H]6C7CCC(O7)[C@@H]6C(=O)N(NC(=O)OC)C(C)C)[nH]5)cc4)ccc3c2)[nH]1)C(C)C` (stereo partly shown) [AA_107] the value was 10 to 100 nM; for `COCCNC(=O)[C@@H]1CCCCC1c1ncc(-c2ccc(-c3ccc(-c4cnc([C@@H]5CCCN5C(=O)[C@@H](NC(=O)OC)C(C)C)[nH]4)cc3)cc2)[nH]1` (stereo partly shown) [AA_114], 1 to 10 nM; for `COC(=O)N[C@H](C(=O)N1CCC[C@H]1c1ncc(-c2ccc(-c3ccc(-c4cnc(C5CCCC[C@H]5C(=O)NCC5CC5)[nH]4)cc3)cc2)[nH]1)C(C)C` (stereo partly shown) [AA_115], 1 to 10 nM. Regarding `COCCCNC(=O)[C@@H]1CCCCC1c1ncc(-c2ccc(-c3ccc(-c4cnc([C@@H]5CCCN5C(=O)[C@@H](NC(=O)OC)C(C)C)[nH]4)cc3)cc2)[nH]1` (stereo partly shown) [AA_116], in assay [1], the EC50 was 1 to 10 nM. Regarding `COC(=O)N[C@H](C(=O)N1CCC[C@H]1c1ncc(-c2ccc(-c3ccc(-c4cnc([C@@H]5[C@H]6CC[C@H](C6)[C@H]5C(=O)NCc5ccc(F)nc5)[nH]4)cc3)cc2)[nH]1)C(C)C` [AA_214_ENDOA2], the concentration giving a half-maximal response (EC50) lay in the range of 0.001 to 0.1 nM in assay [1] and 1 to 10 nM in assay [2]. Take `COC(=O)N[C@H](C(=O)N1CCC[C@H]1c1ncc(-c2ccc(-c3ccc(-c4cnc([C@@H]5C6CCC(C6)[C@H]5C(=O)NC5(C(=O)NCC(F)F)CCCCC5)[nH]4)cc3)cc2)[nH]1)C(C)C` (stereo partly shown) [AA_275]: the half-maximal effective concentration (EC50) in assay [1] fell in the range of 0.001 to 0.1 nM; in assay [2] it was 10 to 100 nM.

`COC(=O)N[C@H](C(=O)N1CCC[C@H]1c1ncc(-c2ccc(-c3ccc(-c4cnc([C@@H]5C6CCC(C6)[C@H]5C(=O)N[C@@H](C(=O)NCC(F)F)C(C)C)[nH]4)cc3)cc2)[nH]1)C(C)C` (stereo partly shown) [AA_276]: the 50% effective concentration (EC50) in assay [1] lay in the range of 1 to 10 nM; in assay [2], 10 to 100 nM. For the molecule `COC(=O)N[C@H](C(=O)N1CCC[C@H]1c1ncc(-c2ccc(-c3ccc(-c4cnc([C@@H]5C6CCC(C6)[C@H]5C(=O)NCC(=O)NCC(F)F)[nH]4)cc3)cc2)[nH]1)C(C)C` (stereo partly shown) [AA_277], the half-maximal effective concentration (EC50) in assay [1] was 0.001 to 0.1 nM; in assay [2], 0.101 to 1 nM. On to `COC(=O)CNC(=O)C1(NC(=O)[C@@H]2C3CCC(C3)[C@H]2c2ncc(-c3ccc(-c4ccc(-c5cnc([C@@H]6CCCN6C(=O)[C@@H](NC(=O)OC)C(C)C)[nH]5)cc4)cc3)[nH]2)CCCCC1` (stereo partly shown) [AA_278], for which the 50% effective concentration (EC50) in assay [1] was in the range of 0.101 to 1 nM; in assay [2], 10 to 100 nM.

On to `COC(=O)N[C@H](C(=O)N1CCC[C@H]1c1ncc(-c2ccc(-c3ccc(-c4cnc([C@@H]5[C@H]6CC[C@H](C6)[C@H]5C(=O)N[C@@H](C)c5nccs5)[nH]4)cc3)cc2)[nH]1)C(C)C` [AA_279_ENDOA2_A], for which the 50% effective concentration (EC50) in assay [1] was in the range of 0.001 to 0.1 nM; in assay [2], 0.101 to 1 nM.

As for `COC(=O)N[C@H](C(=O)N1CCC[C@H]1c1ncc(-c2ccc(-c3ccc(-c4cnc([C@@H]5[C@H]6CC[C@H](C6)[C@H]5C(=O)N[C@H](C)c5nccs5)[nH]4)cc3)cc2)[nH]1)C(C)C` [AA_279_ENDOA2_B], the half-maximal effective concentration (EC50) was 0.001 to 0.1 nM in assay [1] and 1 to 10 nM in assay [2]. With `COC(=O)N[C@H](C(=O)N1CCC[C@H]1c1ncc(-c2ccc(-c3ccc(-c4cnc([C@@H]5[C@H]6CC[C@H](C6)[C@H]5C(=O)N[C@H](C(=O)OC)C(C)C)[nH]4)cc3)cc2)[nH]1)C(C)C` [AA_282_ENDOA2], the figures for the EC50 in assay [1] and in assay [2] were 0.001 to 0.1 nM and 1 to 10 nM, respectively. As to `COC(=O)N[C@H](C(=O)N1CCC[C@H]1c1ncc(-c2ccc(-c3ccc(-c4cnc([C@@H]5[C@H]6CC[C@H](C6)[C@H]5C(=O)N[C@H](C)c5cccnc5F)[nH]4)cc3)cc2)[nH]1)C(C)C` [AA_283_ENDOA2_A], the EC50 lay in the range of 0.001 to 0.1 nM in assay [1] and 1 to 10 nM in assay [2]. For `COC(=O)N[C@H](C(=O)N1CCC[C@H]1c1ncc(-c2ccc(-c3ccc(-c4cnc([C@@H]5[C@H]6CC[C@H](C6)[C@H]5C(=O)N[C@@H](C)c5cccnc5F)[nH]4)cc3)cc2)[nH]1)C(C)C` [AA_283_ENDOA2_B] the same measures were 0.001 to 0.1 nM and 0.001 to 0.1 nM. For `COC(=O)N[C@H](C(=O)N1CCC[C@H]1c1ncc(-c2ccc(-c3ccc(-c4cnc([C@@H]5[C@H]6CC[C@H](C6)[C@H]5C(N)=O)[nH]4)cc3)cc2)[nH]1)C(C)C` [AA_284_ENDOA2] the same measures were 0.001 to 0.1 nM and 10 to 100 nM. For `COC(=O)N[C@H](C(=O)N1CCC[C@H]1c1ncc(-c2ccc(-c3ccc(-c4cnc([C@@H]5[C@H]6CC[C@H](C6)[C@H]5C(=O)N(Cc5cccnc5)C(C)C)[nH]4)cc3)cc2)[nH]1)C(C)C` [AA_285_ENDOA2] the same measures were 0.001 to 0.1 nM and 1 to 10 nM. As for `COC(=O)N[C@H](C(=O)N[C@H]1C2CCC(C2)C1c1ncc(-c2ccc(-c3ccc(-c4cnc([C@@H]5CCCN5C(=O)[C@@H](NC(=O)OC)C(C)C)[nH]4)cc3)cc2)[nH]1)C(C)C` (stereo partly shown) [AA_286], the figures for the 50% effective concentration (EC50) in assay [1] and in assay [2] were 0.001 to 0.1 nM and 10 to 100 nM, respectively. Take `COC(=O)N[C@H](C(=O)N1CCC[C@H]1c1ncc(-c2ccc(-c3ccc(-c4cnc([C@@H]5[C@H]6CC[C@H](C6)[C@H]5C(=O)NCc5cncc(F)c5)[nH]4)cc3)cc2)[nH]1)C(C)C` [AA_287_ENDOA2]: the EC50 in assay [1] lay within 0.001 to 0.1 nM; in assay [2] it was 0.101 to 1 nM. For `COC(=O)N[C@H](C(=O)N1CCC[C@H]1c1ncc(-c2ccc(-c3ccc(-c4cnc([C@@H]5[C@H]6CC[C@H](C6)[C@H]5C(=O)NCc5nccn5C)[nH]4)cc3)cc2)[nH]1)C(C)C` [AA_288_ENDOA2] the same measures were 0.001 to 0.1 nM and 1 to 10 nM. With `COC(=O)N[C@H](C(=O)N1CCC[C@H]1c1ncc(-c2ccc(-c3ccc(-c4cnc([C@@H]5[C@H]6CC[C@H](C6)[C@H]5C(=O)NNC(C)=O)[nH]4)cc3)cc2)[nH]1)C(C)C` [AA_289_ENDOA2], the EC50 in assay [1] lay in the range of 0.101 to 1 nM; in assay [2], 10 to 100 nM.

With `COC(=O)CNC(=O)[C@H](NC(=O)[C@@H]1[C@@H]2CC[C@@H](C2)[C@H]1c1ncc(-c2ccc(-c3ccc(-c4cnc([C@@H]5CCCN5C(=O)[C@@H](NC(=O)OC)C(C)C)[nH]4)cc3)cc2)[nH]1)C(C)C` [AA_290_ENDOA2], the results for the concentration for a half-maximal effect (EC50) in assay [1] and in assay [2] were 0.101 to 1 nM and 10 to 100 nM, respectively.

On to `COC(=O)N[C@H](C(=O)N1CCC[C@H]1c1ncc(-c2ccc(-c3ccc(-c4cnc([C@@H]5[C@H]6CC[C@H](C6)[C@H]5C(=O)NCc5ncc(C)[nH]5)[nH]4)cc3)cc2)[nH]1)C(C)C` [AA_291_ENDOA2], for which the values for the concentration giving a half-maximal response (EC50) in assay [1] and in assay [2] were 0.001 to 0.1 nM and 1 to 10 nM, respectively. In the case of `COC(=O)N[C@H](C(=O)N1CCC[C@H]1c1ncc(-c2ccc(-c3ccc(-c4cnc([C@@H]5[C@H]6CC[C@H](C6)[C@H]5C(=O)NC(C)c5cncnc5)[nH]4)cc3)cc2)[nH]1)C(C)C` (stereo partly shown) [AA_292_ENDOA2_M], the EC50 in assay [1] was in the range of 0.101 to 1 nM; in assay [2] it was 1 to 10 nM. The like results for `COC(=O)N[C@H](C(=O)N1CCC[C@H]1c1ncc(-c2ccc(-c3ccc(-c4cnc([C@@H]5[C@H]6CC[C@H](C6)[C@H]5C(=O)N[C@@H](C(=O)c5ccccc5)C(C)C)[nH]4)cc3)cc2)[nH]1)C(C)C` [AA_293_ENDOA2] were, in that order, 0.001 to 0.1 nM and 1 to 10 nM.
